Tests used:
[1] = test system: 3T3-L1 cells; test: adipogenesis inhibition, glucose uptake of MDI-induced 3T3-L1 preadipocytes; assay type: cell-based; conditions: 0.004%, 0.02%, 0.05%, 0.1%; glucose uptake ten days after differentiation induction
Excerpt: Inhibitory effect of GI5 (5) and nuzhenide (3) on undifferentiated 3T3-L1 cells. The major component of weight gain is deposition of adipose tissue in body through the adipogenesis process. Adipogenesis is characterized by increase in the size and number of fat cells. The secoiridoids, GI5 and nuzhenide isolated from F. excelsior, have shown significant and mild adipogenesis inhibitory activity, respectively, by blocking the pathway from undifferentiated 3T3-L1 cell to differentiated adipocyte to achieve an effect on bodyweight control and body fat loss. 3T3-L1 preadipocytes were induced to differentiate with methylisobutylxanthine, dexamethasone, and insulin (MDI) hormonal cocktail in the presence or absence of compounds. Ten days after differentiation induction, the treated cells were assayed for their respective glucose uptake activity, which is an indirect measurement of differentiation (adipogenesis) because preadipocytes are incapable of insulin-induced, glucose transport-4 (GLUT4)-mediated glucose uptake while fully differentiate adipocytes are capable of this uptake. Compounds, GI5 and nuzhenide, were used at four different concentrations: 0.004%, 0.02%, 0.05%, and 0.1%. Untreated (undifferentiated) cells were used as a negative control while insulin was used as a positive control. Methanol (MeOH), the solvent of the compounds, was also used as a control.

[2] = target: T1, PPAR-alpha (Homo sapiens, UniProt Q07869); test: PPAR-alpha activation in reporter cell lines; assay type: cell-based; conditions: concentration of 10^−4 M
T1 sequence (Q07869 1-468): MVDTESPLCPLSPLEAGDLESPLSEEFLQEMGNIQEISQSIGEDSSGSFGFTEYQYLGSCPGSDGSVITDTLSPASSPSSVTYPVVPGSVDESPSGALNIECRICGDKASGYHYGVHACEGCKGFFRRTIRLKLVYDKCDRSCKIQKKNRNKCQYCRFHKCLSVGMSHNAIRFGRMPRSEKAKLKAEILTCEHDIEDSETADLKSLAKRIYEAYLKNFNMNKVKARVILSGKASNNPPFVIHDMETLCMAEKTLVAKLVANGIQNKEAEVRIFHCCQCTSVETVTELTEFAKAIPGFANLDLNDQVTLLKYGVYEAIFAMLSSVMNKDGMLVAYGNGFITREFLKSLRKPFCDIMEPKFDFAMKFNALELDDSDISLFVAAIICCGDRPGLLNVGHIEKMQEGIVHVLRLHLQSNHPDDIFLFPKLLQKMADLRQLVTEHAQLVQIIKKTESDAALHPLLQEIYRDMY
Excerpt: FIG. 6 illustrates relative PPARα activation potential (%) in reporter cell lines using concentrations ranging from 10^−5M-10^−9M for the selective synthetic PPARα activator WY14,643 as well as the isolated compounds at a concentration of 10^−4M and a 1:10 aqueous solution of FE seed extract, with compound label: FE19028 (Nuzhenide, 3), FE20015 (G13, 4), FE20031 (oleoside dimethyl ester, 6), FE21008 (excelside A, 1), and FE21023 (GI5, 5);
PPAR-alpha activity of excelside A (1), GI3 (4), and oleoside dimethyl ester (6). Five single compounds isolated from Fraxinus excelsior (FE) seed water extract were tested for PPAR-alpha activity. The synthetic and selective PPAR alpha activator WY14,643 served as positive control and DMSO which was used to dissolve these compounds as negative control in the assay.

SMILES | adipogenesis inhibitory activity [1] | PPAR-alpha activity [2]
C/C=C1\C(CC(=O)OC[C@H]2O[C@@H](OCCc3ccc(O)cc3)[C@H](O)[C@@H](O)[C@@H]2O)C(C(=O)OC)=CO[C@H]1O[C@@H]1O[C@H](CO)[C@@H](O)[C@H](O)[C@H]1O (stereo partly drawn) [nuzhenide] | mild | –
C/C=C1\[C@H](O[C@@H]2O[C@H](CO)[C@@H](O)[C@H](O)[C@H]2O)OC=C(C(=O)OC)[C@H]1CC(=O)OC [oleoside dimethyl ester] | – | good activity
C/C=C1/[C@H](O[C@@H]2O[C@H](CO[C@@H]3O[C@H](CO)[C@@H](O)[C@H](O)[C@H]3O)[C@@H](O)[C@H](O)[C@H]2O)OC=C(C(=O)OC)[C@H]1CC(=O)OC [excelside A, (2S,3E,4S) 2H-Pyran-4-acetic acid-3-ethylidene-2-[(6-O-β-D-glucopyranosyl-β-D-glucopyranosyl)oxy]-3,4-dihydro-5-(methoxycarbonyl)methyl ester] | – | good activity

From US8293292B2, “Extract of Fraxinus excelsior seeds and therapeutic applications therefor” (Naturex, S.A., priority 2008, dated 2012)
